Data as given in US10875867B2, “Cyclic ether derivatives of pyrazolo[1,5-a]pyrimidine-3-carboxyamide” (Boehringer Ingelheim International GmbH, priority 2015, dated 2020).

Experiments:
PDE 2A = PDE 2A (Homo sapiens (Human), UniProt O00408); test: Phosphodiesterase (PDE) 2A assay with fluorescent substrate (IMAP, fluorescence polarization); assay type: biochemical; conditions: labeled cAMP 30 nM, read-out: PDE2 IC50
Method: (§1) The IMAP system (Molecular Device) using fluorescence polarization (FP) as detection principle was used to measure enzyme activity. A fluorescent labeled cAMP was used as substrate for the reaction, generating a labeled AMP. The fluorescent AMP binds specifically to the large M(III)-based nano-particles which reduces the rotational speed of the substrate and thus increases its polarization. Detailed Method: The inhibition of PDE 2A or 10 enzyme activity was assessed using IMAP-Phosphodiesterase-cAMP fluorescence labeled substrate (Molecular Devices, Order No. R7506), IMAP TR-FRET screening express (Molecular Devices, Order No. R8160, the TR-FRET component will not be used) and PDE 2A or PDE10 protein expressed upon baculovirus infection in SF9 cells. […] The cells were collected by centrifugation and the pellet frozen in liquid nitrogen before it was resuspended in PBS containing 1% Triton X-100 and protease inhibitors. After 45 min incubation on ice, the cell debris was removed by centrifugation (13.000 rpm, 30 min). […] All reactions were performed in 384 well plates, Perkin Elmer black optiplates and IMAP reaction buffer with 0.1% Tween20 (kit component) Compounds were serial diluted in DMSO. […] Reaction is stopped by adding of 60 μl binding buffer for FP/cAMP (kit component).

PDE10 = PDE10 (Homo sapiens (Human), UniProt Q9Y233); test: Phosphodiesterase (PDE) 10 assay with fluorescent substrate (IMAP, fluorescence polarization); assay type: biochemical; conditions: labeled cAMP 30 nM
Method: as §1

Sequence of PDE 2A (O00408 whole entry, species assumed): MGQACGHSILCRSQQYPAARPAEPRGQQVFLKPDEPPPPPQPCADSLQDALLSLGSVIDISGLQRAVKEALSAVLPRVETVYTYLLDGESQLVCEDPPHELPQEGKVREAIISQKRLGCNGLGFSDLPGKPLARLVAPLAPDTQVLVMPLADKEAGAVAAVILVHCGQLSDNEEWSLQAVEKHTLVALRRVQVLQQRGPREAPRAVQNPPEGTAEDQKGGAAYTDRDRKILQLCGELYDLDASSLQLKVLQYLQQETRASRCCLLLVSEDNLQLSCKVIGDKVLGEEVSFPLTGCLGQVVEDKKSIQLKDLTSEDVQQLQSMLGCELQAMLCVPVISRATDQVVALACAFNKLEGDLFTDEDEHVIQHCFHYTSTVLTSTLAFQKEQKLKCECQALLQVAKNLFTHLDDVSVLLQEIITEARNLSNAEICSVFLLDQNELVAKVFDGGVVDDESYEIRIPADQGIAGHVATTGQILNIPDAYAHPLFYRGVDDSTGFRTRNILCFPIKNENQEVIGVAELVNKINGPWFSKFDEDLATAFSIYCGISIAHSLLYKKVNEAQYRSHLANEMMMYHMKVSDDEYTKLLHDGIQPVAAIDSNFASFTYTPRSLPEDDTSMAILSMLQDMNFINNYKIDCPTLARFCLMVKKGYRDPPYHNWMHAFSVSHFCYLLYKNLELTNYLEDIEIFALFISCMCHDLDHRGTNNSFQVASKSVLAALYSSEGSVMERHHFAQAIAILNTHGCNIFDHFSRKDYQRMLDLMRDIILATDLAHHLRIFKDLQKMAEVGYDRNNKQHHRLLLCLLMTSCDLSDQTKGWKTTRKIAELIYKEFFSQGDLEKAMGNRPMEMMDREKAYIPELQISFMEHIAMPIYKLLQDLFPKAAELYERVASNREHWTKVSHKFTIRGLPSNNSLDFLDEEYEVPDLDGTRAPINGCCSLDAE
Sequence of PDE10 (Q9Y233 whole entry): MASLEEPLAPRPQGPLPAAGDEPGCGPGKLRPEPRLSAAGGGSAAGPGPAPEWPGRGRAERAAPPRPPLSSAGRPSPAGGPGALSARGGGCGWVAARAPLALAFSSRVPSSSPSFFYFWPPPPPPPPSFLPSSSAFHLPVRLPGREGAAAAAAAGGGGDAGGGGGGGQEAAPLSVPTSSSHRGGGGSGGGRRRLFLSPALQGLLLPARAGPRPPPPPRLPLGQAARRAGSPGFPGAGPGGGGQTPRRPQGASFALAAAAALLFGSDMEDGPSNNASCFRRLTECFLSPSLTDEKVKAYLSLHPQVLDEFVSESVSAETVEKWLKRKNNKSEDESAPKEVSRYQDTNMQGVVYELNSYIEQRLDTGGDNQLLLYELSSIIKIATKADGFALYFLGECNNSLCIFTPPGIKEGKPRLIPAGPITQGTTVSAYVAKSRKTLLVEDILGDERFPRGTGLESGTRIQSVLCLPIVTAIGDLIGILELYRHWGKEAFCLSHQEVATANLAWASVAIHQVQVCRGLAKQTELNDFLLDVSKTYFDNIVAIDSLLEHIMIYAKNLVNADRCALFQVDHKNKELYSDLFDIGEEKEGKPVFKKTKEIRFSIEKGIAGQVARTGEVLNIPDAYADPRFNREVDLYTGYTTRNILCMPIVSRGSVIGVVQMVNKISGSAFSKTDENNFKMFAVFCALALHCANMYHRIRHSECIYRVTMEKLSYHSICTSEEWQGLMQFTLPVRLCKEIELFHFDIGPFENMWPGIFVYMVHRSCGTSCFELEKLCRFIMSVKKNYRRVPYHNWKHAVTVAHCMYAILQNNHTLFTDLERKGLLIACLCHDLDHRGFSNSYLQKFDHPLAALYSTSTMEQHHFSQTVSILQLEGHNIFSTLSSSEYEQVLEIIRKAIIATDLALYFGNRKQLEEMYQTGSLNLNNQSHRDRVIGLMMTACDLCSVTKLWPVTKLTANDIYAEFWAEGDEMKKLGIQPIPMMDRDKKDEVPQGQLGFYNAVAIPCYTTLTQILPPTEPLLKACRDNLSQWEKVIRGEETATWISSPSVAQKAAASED

| IC50 (PDE 2A) | IC50 (PDE10) | SMILES |
| --- | --- | --- |
| 124 nM | > 10 µM | Cc1nn2cc(C3CC3)cnc2c1C(=O)NC1(c2ccc(C(F)(F)F)cn2)CCOCC1O (racemic) [Example 63] |
| 22 nM | > 10 µM | O=C(NC1(c2ccc(C(F)(F)F)cc2)CCOCC1O)c1cnn2cc(C3CC3)cnc12 (stereo not shown) [Example 60] |
